Test system: chicken roundworm [鶏回虫(^5earidia galli)]
Assay: Anthelmintic test: single oral dose to chickens infected with chicken roundworm; worm expulsion rate over 7 days
Assay type: in vivo, chicken roundworm (^5earidia galli)
Settings: for worm expulsion rate (mean): single oral dose (gelatin capsule), n = 3, 7 days, untreated control 0%

SMILES: [C-]#[N+]C(=Cc1ccc(O)cc1)C(=Cc1ccc(OC)cc1)[N+]#[C-] [キサントシリンXモノメチルエーテル, 1(p−ヒドロキシフェニル)−2、3−ジイソシフノー4−(p−メトキシフェニル)−ブタ−1,3−ツエン]
- worm expulsion rate (mean) (5 mg/kg): 8%
- worm expulsion rate (mean) (10 mg/kg): 69.7%
- worm expulsion rate (mean) (20 mg/kg, completely expelled): 100%
- anthelmintic effect (doses of 10 mg/kg to 20 mg/kg, single oral dose): 確実な駆虫効果が確認された
- time after dosing within which most worms were expelled (most of the medicated groups, single oral dose 5-20 mg/kg): ≤ 2 days

Reference: patent publication JPH0240324A, “キサントシリンxモノメチルエーテルを含有する駆虫剤” (Meiji Seika Kaisha Ltd, priority 1988, dated 1990)
